Measured values as given in patent US20070259849A1, “Azine-Carboxamides as Anti-Cancer Agents” (ASTRAZENECA AB, priority 2004, published 2007).

target: T1, human recombinant, purified wild type His-B-Raf protein kinase (Homo sapiens, UniProt P15056); assay: B-Raf In Vitro ELISA Assay; assay type: biochemical; conditions: phosphorylation of MEK1 (0.15 μM) by 2.5 nM B-Raf, 10 μM ATP, 1 hour preincubation at 25° C.
T1 construct: His
Method: B-Raf In Vitro ELISA Assay
Activity of human recombinant, purified wild type His-B-Raf protein kinase was determined in vitro using an enzyme-linked immunosorbent assay (ELISA) assay format, which measures phosphorylation of the B-Raf substrate, human recombinant, purified His-derived (detagged) MEK1. The reaction utilized 2.5 nM B-Raf, 0.15 μM MEK1 and 10 μM adenosine triphosphate (ATP) in 40 mM N-(2-hydroxyethyl)piperazine-N′-(2-ethanesulfonic acid hemisodium salt (HEPES), 5 mM 1,4-dithio-DL-threitol (DTT), 10 mM MgCl2, 1 mM ethylenediaminetetraacetic acid (EDTA) and 0.2 M NaCl (1×HEPES buffer), with or without compound at various concentrations, in a total reaction volume of 25 μl in 384 well plates. B-Raf and compound were preincubated in 1×HEPES buffer for 1 hour at 25° C. Reactions were initiated with addition of MEK1 and ATP in 1×HEPES buffer and incubated at 25° C. for 50 minutes and reactions stopped by addition of 10 μl 175 mM EDTA (final concentration 50 mM) in 1× HEPES buffer. 5 μl of the assay mix was then diluted 1:20 into 50 mM EDTA in 1×HEPES buffer, transferred to 384 well black high protein binding plates and incubated overnight at 4° C. Plates were washed in tris buffered saline containing 0.1% Tween20 (TBST), blocked with 50 μl Superblock (Pierce) for 1 hour at 25° C., washed in TBST, incubated with 50 μl rabbit polyclonal anti-phospho-MEK antibody (Cell Signaling) diluted 1:1000 in TBS for 2 hours at 25° C., washed with TBST, incubated with 50 μl goat anti-rabbit horseradish peroxidase-linked antibody (Cell Signaling) diluted 1:2000 in TBS for 1 hour at 25° C. and washed with TBST. 50 μl of fluorogenic peroxidase substrate (Quantablu—Pierce) was added and following incubation for 45-60 minutes, 50 μl QuantabluSTOP (Pierce) was added. Blue fluorescent product was detected at excitation 325 and emission 420 using a TECAN Ultra plate reader. Data was graphed and IC50s calculated using Excel Fit (Microsoft).

T1 sequence (P15056 whole entry): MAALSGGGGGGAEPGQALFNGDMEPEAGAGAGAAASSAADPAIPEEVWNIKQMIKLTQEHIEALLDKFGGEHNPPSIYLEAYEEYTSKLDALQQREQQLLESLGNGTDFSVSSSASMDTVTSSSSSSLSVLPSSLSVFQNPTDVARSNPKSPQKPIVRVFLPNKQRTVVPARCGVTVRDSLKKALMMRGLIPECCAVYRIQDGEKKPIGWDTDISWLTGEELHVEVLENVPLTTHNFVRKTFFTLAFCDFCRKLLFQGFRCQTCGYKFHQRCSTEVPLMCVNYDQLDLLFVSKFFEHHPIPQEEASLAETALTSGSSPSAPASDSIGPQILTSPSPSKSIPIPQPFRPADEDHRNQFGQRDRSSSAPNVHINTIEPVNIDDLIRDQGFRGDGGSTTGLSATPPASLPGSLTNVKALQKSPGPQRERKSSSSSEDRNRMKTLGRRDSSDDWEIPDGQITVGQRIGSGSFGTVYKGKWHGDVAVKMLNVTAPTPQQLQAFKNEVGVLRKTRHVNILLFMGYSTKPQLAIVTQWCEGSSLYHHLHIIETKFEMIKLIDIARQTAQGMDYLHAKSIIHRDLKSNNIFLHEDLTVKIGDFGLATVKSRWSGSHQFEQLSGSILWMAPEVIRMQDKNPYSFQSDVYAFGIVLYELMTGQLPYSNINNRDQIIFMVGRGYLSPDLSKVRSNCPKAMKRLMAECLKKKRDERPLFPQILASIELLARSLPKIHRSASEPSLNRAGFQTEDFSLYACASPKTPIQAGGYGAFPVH

IC50 [nM] | Compound
5700 | Cc1cc(C(=O)Nc2cc(NC(=O)c3cccc(C(C)(C)C#N)c3)ccc2C)nc(N2CCCCC2)n1 [Example 1, N^1-[3-(1-Cyano-1-methylethyl)benzoyl]-N^3-[2-(piperidin-1-yl)-4-methylpyrimidin-6-ylcarbonyl]-4-methylbenzene-1,3-diamine]
600 | Cc1cc(C(=O)Nc2cc(NC(=O)c3cccc(C(C)(C)C#N)c3)ccc2C)nc(N2CCOCC2)n1 [Example 7, N^1-[3-(1-Cyano-1-methylethyl)benzoyl]-N^3-[2-(morpholino)-4-methylpyrimidin-6-ylcarbonyl]-4-methylbenzene-1,3-diamine]
800 | Cc1cc(C(=O)Nc2cc(NC(=O)c3cccc(C(F)(F)F)c3)ccc2C)nc(N2CCN(C)CC2)n1 [Example 49, N^1-(3-Trifluoromethylbenzoyl)-N^3-[2-(4-methylpiperazin-1-yl)-4-methylpyrimidin-6-ylcarbonyl]-4-methylbenzene-1,3-diamine]
